pEC50: −log10 of the molar value.
Target: T1, human RXFP1 (Homo sapiens, UniProt Q9HBX9)
T1 construct: expressed in transfected cells
T1 sequence (Q9HBX9 1-757): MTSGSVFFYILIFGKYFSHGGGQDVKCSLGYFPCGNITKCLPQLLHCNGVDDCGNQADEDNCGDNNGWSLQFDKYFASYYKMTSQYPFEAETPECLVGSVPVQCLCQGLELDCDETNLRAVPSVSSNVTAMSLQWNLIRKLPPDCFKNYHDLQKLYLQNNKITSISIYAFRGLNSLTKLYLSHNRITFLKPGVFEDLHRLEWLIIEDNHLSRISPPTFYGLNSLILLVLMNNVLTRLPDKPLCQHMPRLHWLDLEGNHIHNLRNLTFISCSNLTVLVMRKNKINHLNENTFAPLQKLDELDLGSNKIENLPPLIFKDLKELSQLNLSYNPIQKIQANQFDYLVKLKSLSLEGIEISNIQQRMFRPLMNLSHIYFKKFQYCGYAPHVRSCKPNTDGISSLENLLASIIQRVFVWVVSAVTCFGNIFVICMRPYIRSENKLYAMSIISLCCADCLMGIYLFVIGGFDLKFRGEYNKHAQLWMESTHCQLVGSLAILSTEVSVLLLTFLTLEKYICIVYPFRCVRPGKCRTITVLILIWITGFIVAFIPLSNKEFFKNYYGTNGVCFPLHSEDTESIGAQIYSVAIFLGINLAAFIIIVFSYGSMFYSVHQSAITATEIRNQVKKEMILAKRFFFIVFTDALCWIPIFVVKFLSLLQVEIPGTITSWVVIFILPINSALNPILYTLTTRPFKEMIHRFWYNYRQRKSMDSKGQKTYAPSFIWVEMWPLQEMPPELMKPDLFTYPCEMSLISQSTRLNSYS
Assay: RXFP1 cAMP assay (hRXFP1 HEK293 cAMP assay, HTRF)
Type: cell-based
Details: HEK293 cells stably expressing human RXFP1, 30 min at room temperature, read-out: cAMP hRXFP1 HEK293 Assay EC50
Summary of the method: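 HEK293 cells stably expressing human RXFP1 (1500 cells/well) in HBSS/20 mM HEPES/0.05% BSA/0.5 mM IBMX. Compounds were tested at 0.010 nM–50 μM final (2% DMSO) for 30 min at room temperature. cAMP was measured by HTRF and values derived by 4-parameter logistic fit.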

SMILES | pEC50
COC(=O)c1cnn2cc(-c3ccc(OC)c(C(=O)N[C@@H]4C5CCC(/C5=C/C(F)(F)F)[C@@H]4C(=O)Nc4ccc(F)c(C(F)(F)F)c4)c3)ccc12 (some centres unmarked) [compound 313] | 7.05
COc1ccc(C2=NOC3COCC23)cc1C(=O)N[C@H]1[C@@H](C(=O)NCc2ccccc2OC(F)F)[C@H]2CC[C@@H]1/C2=C\C1CC1 (some centres unmarked) [compound 624] | 6.77
COc1ccc(-c2ccc3c(c2)nnn3CC(=O)O)cc1C(=O)N[C@@H]1C2CCC(/C2=C/C(F)(F)F)[C@@H]1C(=O)Nc1ccc(F)c(C(F)(F)F)c1 (some centres unmarked) [compound 312] | 8.05
CCOC(=O)c1cc2cc(-c3ccc(OC)c(C(=O)N[C@@H]4C5CCC(/C5=C/C(F)(F)F)[C@@H]4C(=O)Nc4ccc(F)c(C(F)(F)F)c4)c3)ccc2[nH]1 (some centres unmarked) [compound 297] | 7.14
COc1ccc(-c2cc(C(CC(=O)O)C(F)(F)F)ccc2F)cc1C(=O)N[C@H]1[C@@H](C(=O)Nc2ccc(F)c(C(F)(F)F)c2)[C@H]2CC[C@@H]1/C2=C\C1CC1 (some centres unmarked) [compound 873] | 8.48
COc1ccc(C2=NOC3CC(C)(O)CC23)cc1C(=O)N[C@H]1[C@@H](C(=O)Nc2ccc(F)c(C(F)(F)F)c2)[C@H]2CC[C@@H]1/C2=C\C1CC1 (some centres unmarked) [compound 858] | 8.89
O=C(N[C@H]1[C@@H](C(=O)Nc2ccc(F)c(C(F)(F)F)c2)[C@H]2CC[C@@H]1/C2=C\C1CC1)c1cccc(C2=NOC3CC(O)CC23)c1 (some centres unmarked) [compound 628] | 6.75
COc1c(F)cc(C2=NOC3CC(CO)CC23)cc1C(=O)N[C@H]1[C@@H](C(=O)NCC(C)(C)C)[C@H]2CC[C@@H]1/C2=C\C1CC1 (some centres unmarked) [compound 765] | 8.60
COCC1CC(c2ccc(OC)c(C(=O)N[C@H]3[C@@H](C(=O)Nc4ccc(F)c(C(F)(F)F)c4)[C@H]4CC[C@@H]3C4=CC3CC3)c2)=NO1 (some centres unmarked) [compound 551] | 7.44
CNC(=O)c1ccc(F)c(-c2ccc(OC)c(C(=O)N[C@H]3[C@@H](C(=O)Nc4ccc(F)c(C(F)(F)F)c4)[C@H]4CC[C@@H]3C4=C(C)C)c2)c1 [compound 151] | 6.62
CCCOc1c(F)cc(C2=NOC3CC(CO)CC23)cc1C(=O)N[C@H]1[C@@H](C(=O)Nc2ccc(F)c(C(F)(F)F)c2)[C@H]2CC[C@@H]1/C2=C\C1CC1 (some centres unmarked) [compound 779] | 8.80
COc1ccc(-c2cnn3c2CC(O)CC3)cc1C(=O)N[C@H]1[C@@H](C(=O)N[C@@H](C)C2(C)CC2)[C@H]2CC[C@@H]1/C2=C\C1CC1 (some centres unmarked) [compound 871] | 8.32
COc1ccc(C2=NOC3CC(C)(CO)CC23)cc1C(=O)N[C@H]1[C@@H](C(=O)Nc2ccc(F)c(C(F)(F)F)c2)[C@H]2CC[C@@H]1/C2=C\C1CC1 (some centres unmarked) [compound 736] | 8.62
COc1ccc(C2=NOC3COCC23)cc1C(=O)N[C@H]1[C@@H](C(=O)N[C@@H](C)C(C)(C)C)[C@H]2CC[C@@H]1/C2=C\C1CC1 (some centres unmarked) [compound 541] | 7.52
COc1ccc(C2=NOC3CN(C(=O)OC(C)(C)C)CC23)cc1C(=O)N[C@@H]1C2CCC(/C2=C/C2CC2)[C@@H]1C(=O)Nc1ccc(F)c(C(F)(F)F)c1 (some centres unmarked) [compound 436] | 8.40
COc1cc(F)c(F)cc1C(=O)N[C@@H]1C2CCC(/C2=C/c2cnn(C)c2)[C@@H]1C(=O)Nc1ccc(F)c(C(F)(F)F)c1 (some centres unmarked) [compound 66] | 5.77
COc1ccc(-c2cc(C(OC(=O)N(C)C3CCC3)C(F)(F)F)ccc2F)cc1C(=O)N[C@@H]1C2CCC(/C2=C/C2CC2)[C@@H]1C(=O)Nc1ccc(F)c(C(F)(F)F)c1 (some centres unmarked) [compound 209] | 9.00
COc1ccc(-c2cnc(C)nc2)cc1C(=O)N[C@H]1[C@@H](C(=O)Nc2ccc(F)c(C(F)(F)F)c2)[C@H]2CC[C@@H]1C2=C(C)C [compound 98] | 6.29
CCOC(=O)c1ccnn1-c1ccc(OC)c(C(=O)N[C@@H]2C3CCC(/C3=C/C(F)(F)F)[C@@H]2C(=O)Nc2ccc(F)c(C(F)(F)F)c2)c1 (some centres unmarked) [compound 344] | 6.12
CCC/C=C1\[C@H]2CC[C@@H]1[C@H](C(=O)Nc1ccc(F)c(C(F)(F)F)c1)[C@@H]2NC(=O)c1cc(C2=NOC3CC(CO)CC23)cc(F)c1OC (some centres unmarked) [compound 793] | 8.66

From patent US20250221966A1, “RXFP1 AGONISTS” (BRISTOL-MYERS SQUIBB COMPANY, priority 2021, published 2025)
